Values after ≈ are worked out from the molar mass of the structure shown. Like-named read-outs stand apart in the source and are kept apart here.
Assays:
[1] = test system: HSV-1; test: HSV-1 antiviral assay: plaque reduction in WI-38 cell culture monolayers; format: cell-based, herpes simplex virus type 1, strain Schooler; settings: read-out: ID50 HSV-1
Description: (§1) Assays were performed in cell culture systems to determine the concentrations of compounds that are effective in preventing several kinds of viral infections.
(§2) HSV-1 (herpes simplex virus type 1, strain Schooler), HSV-2 (herpes simplex virus type 2, strain 186), VZV (varicella zoster virus, strain ELLEN).
(§3) HSV-1, HSV-2, and VZV antiviral assays: Virus was adsorbed to WI-38 cell culture monolayers in 6 well culture plates (Costar, Cambridge, Mass.) for 1 hour prior to addition of maintenance medium containing duplicate dilutions of the test compound. Inhibition of plaque development was evaluated on fixed and stained monolayers after 4 days incubation at 37° C. for HSV-1 and HSV-2 and after 6-7 days incubation at 37° C. for VZV. ID50 values were determined from the drug concentration which conferred at least a 50% plaque reduction compared to virus controls (Table 1).

[2] = test system: HSV-2; test: HSV-2 antiviral assay: plaque reduction in WI-38 cell culture monolayers; format: cell-based, herpes simplex virus type 2, strain 186; settings: read-out: ID50 HSV-2
Description: as §1, §2, §3

[3] = test system: VZV; test: VZV antiviral assay: plaque reduction in WI-38 cell culture monolayers; format: cell-based, varicella zoster virus, strain ELLEN; settings: Human alphaherpesvirus 3, 156 h; WI-38 cells; at least 50% plaque reduction vs virus controls; 6-7 days at 37° C.; read-out: ID50 VZV
Description: as §1, §2, §3

[4] = Human alphaherpesvirus 1, 96 h, WI-38 cells, at least 50% plaque reduction vs virus controls, 4 days at 37° C.
[5] = Human alphaherpesvirus 2, 96 h, WI-38 cells, at least 50% plaque reduction vs virus controls, 4 days at 37° C.

Row | Structure (SMILES) | IC50 [1, 4] [µg/mL] | IC50 [2, 5] [µg/mL] | IC50 [3] [µg/mL] | IC50 ([1]; Human alphaherpesvirus 1, WI-38, 96 h) [µg/mL] | IC50 ([2]; Human alphaherpesvirus 2, WI-38, 96 h) [µg/mL]
1 | Cc1cn([C@@H]2CO[C@H](CO)[C@H]2O)c(=O)[nH]c1=O [[3R-(3α,4β,5α)]-5-Methyl-1-[tetrahydro-4-hydroxy-5-(hydroxymethyl)-3-furanyl]2,4(1H,3H)pyrimidinedione] | 10 (≈ 41.3 µM) | > 100 | > 100 | – | –
2 | Nc1ccn([C@@H]2CO[C@H](CO)[C@H]2O)c(=O)n1 [[3R-(3α,4β,5α)]-4-Amino-1-[tetrahydro-4-hydroxy-5-(hydroxymethyl)-3-furanyl]-2(1H)-pyrimidinone] | – | – | 25 to 50 (≈ 110 to 220 µM) | > 100 | > 100
3 | Nc1nc2c(ncn2[C@@H]2CO[C@H](CO)[C@H]2O)c(=O)[nH]1 | 2 to 5 (≈ 7.48 to 18.7 µM) | 2 (≈ 7.48 µM) | 50 to 100 (≈ 187 to 374 µM) | – | –

From US5272152A, “Purinyl and pyrimidinyl tetrahydrofurans” (priority 1991, dated 1993)
